Laboratory results: patent US20210275657A1, “NEOANTIGENS AND USES THEREOF” (BioNTech US Inc., priority 2018, published 2021)
Read-outs that look alike come from different tables or passages of the source. Where no end group is shown, it is not given here.

Conditions: for Solubility in […] SS in D5W w/ 4% DMSO: […] sodium succinate in D5W; for Solubility in […] SS in D5W w/ 4% DMSO / Solubility in […] SS in D5W w/o DMSO / Solubility in 0.5 mM SS in D5W w/ 4% DMSO: no polyICLC; for solubility: without DMSO, after 6 hours; for solubility in 5 mM SS: 5 mM SS (higher SS concentration) in D5W; for Solubility in […] SS in D5W w/o DMSO / Solubility in Poly ICLC + […] SS in D5W w/o DMSO / Solubility in Poly ICLC + 5 mM SS in D5W w/o DMSO: no DMSO; for Solubility in 0.5 mM SS in D5W w/ 4% DMSO: 0.5 mM sodium succinate in D5W

Sequence: ESKIMFATLQRSSLWC [Peptide L11g]
- Solubility in […] SS in D5W w/ 4% DMSO (4% DMSO): Yes
- Solubility in Poly ICLC + […] SS in D5W w/ 4% DMSO (with polyICLC, 4% DMSO): No

Sequence: FLKAESKIMFATLQRS [Peptide L11f]
- solubility (0.4 mg/mL in […] SS): soluble
- solubility in 5 mM SS: not soluble
- Solubility in […] SS in D5W w/o DMSO: Yes
- Solubility in […] SS in D5W w/ 4% DMSO (4% DMSO): Yes
- solubility in low SS (lower SS concentration ([…] SS/D5W)): soluble
- Solubility in Poly ICLC + […] SS in D5W w/o DMSO (with polyICLC): Yes

Sequence: FLKAESKIMFATLQRSSLWCL [Peptide 11]
- Solubility in Poly ICLC + […] SS in D5W w/ 4% DMSO (with polyICLC, 4% DMSO): No

Sequence: GPPARVPAVPFDLHFCRSSIMKPKRD [Peptide 8]
- Solubility in 0.5 mM SS in D5W w/ 4% DMSO (4% DMSO): Yes
- Solubility in […] SS in D5W w/o DMSO: Yes
- Solubility in […] SS in D5W w/ 4% DMSO (4% DMSO): Yes
- Solubility in Poly ICLC + 0.5 mM SS in D5W w/ 4% DMSO (with polyICLC, 0.5 mM SS in D5W, 4% DMSO): Yes
- Solubility in Poly ICLC + 5 mM SS in D5W w/o DMSO (with polyICLC): Yes
- Solubility in Poly ICLC + […] SS in D5W w/ 4% DMSO (with polyICLC, 4% DMSO): Yes
- Solubility in Poly ICLC + […] SS in D5W w/o DMSO (with polyICLC): Yes

Sequence: GPPARVPAVPFDLHFCRSSIMKPKRD [Peptide L8]
- solubility (0.4 mg/mL in […] SS): soluble
- solubility in 5 mM SS: soluble
- solubility (5 mM SS): soluble

Sequence: KAESKIMFATLQRSSLWCL [Peptide 11d]
- Solubility in 0.5 mM SS in D5W w/ 4% DMSO (4% DMSO): Yes
- Solubility in […] SS in D5W w/o DMSO: Yes
- Solubility in […] SS in D5W w/ 4% DMSO (4% DMSO): Yes
- Solubility in Poly ICLC + […] SS in D5W w/o DMSO (with polyICLC): Yes

Sequence: KAESKIMFATLQRSSLWCL [Peptide L11d]
- solubility (0.4 mg/mL in […] SS): soluble

Sequence: KPKRDGYMFLKAESKI [Peptide L10c]
- solubility (0.4 mg/mL in […] SS): soluble
- solubility in 5 mM SS: soluble
- solubility (5 mM SS): soluble
- Solubility in […] SS in D5W w/o DMSO: Yes
- Solubility in […] SS in D5W w/ 4% DMSO (4% DMSO): Yes
- Solubility in Poly ICLC + 5 mM SS in D5W w/ 4% DMSO (with polyICLC, 4% DMSO): Yes
- Solubility in Poly ICLC + 5 mM SS in D5W w/o DMSO (with polyICLC): Yes
- Solubility in Poly ICLC + […] SS in D5W w/o DMSO (with polyICLC): Yes

Sequence: KPKRDGYMFLKAESKIMFAT [Peptide 10b]
- Solubility in 0.5 mM SS in D5W w/ 4% DMSO (4% DMSO): Yes
- Solubility in […] SS in D5W w/ 4% DMSO (4% DMSO): Yes
- Solubility in Poly ICLC + […] SS in D5W w/ 4% DMSO (with polyICLC, 4% DMSO): No

Sequence: KPKRDGYMFLKAESKIMFATLQR [Peptide 10]
- Solubility in […] SS in D5W w/ 4% DMSO (4% DMSO): Yes
- Solubility in Poly ICLC + 5 mM SS in D5W w/ 4% DMSO (with polyICLC, 4% DMSO): No
- Solubility in Poly ICLC + […] SS in D5W w/ 4% DMSO (with polyICLC, 4% DMSO): No

Sequence: LHFCRSSIMKPKRDGYMFLKAESKI [Peptide 9]
- Solubility in 0.5 mM SS in D5W w/ 4% DMSO (4% DMSO): Yes
- Solubility in […] SS in D5W w/o DMSO: Yes
- Solubility in […] SS in D5W w/ 4% DMSO (4% DMSO): Yes
- Solubility in Poly ICLC + 5 mM SS in D5W w/o DMSO (with polyICLC): Yes
- Solubility in Poly ICLC + […] SS in D5W w/ 4% DMSO (with polyICLC, 4% DMSO): Yes

Sequence: LHFCRSSIMKPKRDGYMFLKAESKI [Peptide L9]
- solubility (0.4 mg/mL in […] SS): soluble
- solubility in 5 mM SS: soluble
- solubility (5 mM SS): soluble

Sequence: YMFLKAESKIMFATLQRSS [Peptide 11c]
- Solubility in 0.5 mM SS in D5W w/ 4% DMSO (4% DMSO): Yes
- Solubility in […] SS in D5W w/ 4% DMSO (4% DMSO): Yes
- Solubility in Poly ICLC + […] SS in D5W w/ 4% DMSO (with polyICLC, 4% DMSO): No
